Measured values taken from US20080262068A1, “Method of Tonic Treatment With Oxyphenbutazone Derivatives” (A-Viral ASA, priority 2004, published 2008).
Where two headings read alike, the source gives them in different places. Values belong to the molecule of their own block, whether it stands above or below them.

Columns and labels:
[1] = tested on: anti-CD3/anti-CD28 induced GM-CSF production; assay: anti-CD3/anti-CD28 induced GM-CSF production by PBMC (ELISA); format: cell-based, human; details: for IC50: 3 days anti-CD3/anti-CD28 stimulation, mean ± SD of at least 3 donors, 0.15-40 μM tested, read-out: IC50 aCD3/aCD28 stimulation (GM-CSF production); for concentration inhibiting GM-CSF production (total inhibition): concentration series up to 40 μM
Method: (§1) The medium used throughout this Example was Iscoves modified Dulbecco's medium (IMDM, Bio Whittaker, Verviers, Belgium) containing 100 U/ml penicillin, […] streptomycin (Gibco, Merelbeke, Belgium), 50 μM 2-mercaptoethanol (Sigma-Aldrich, Steinheim, Germany), 5% heat-inactivated fetal calf serum (FCS, Bodinco, Alkmaar, the Netherlands) and 20 mg/ml human transferrin (Sigma-Aldrich).
(§2) PBMC (peripheral blood mononuclear cells) were isolated from freshly drawn blood of a healthy donor and separated over a Percoll gradient (d=1.078, Pharmacia Fine Chemicals AB, Uppsala, Sweden). These isolated PBMC were cultured in 200 μl IMDM (2×10^5 cells/ml) at 37° C. in the presence of 5% CO2 in flat bottom plates (Nunc, Roskilde, Denmark). A combination of 1 μg/ml anti-CD3 and anti-CD28 (CLB.T3/4.E res. CLB.CD28/1, CLB, Amsterdam, The Netherlands) was used for T lymphocyte stimulation. For monocyte stimulation 100 pg/ml lipo-oligosaccharide (LOS, kind gift of Dr. J. Poolman, RIVM, Bilthoven, The Netherlands) was used.
(§3) Cytokine production of T lymphocytes was measured 3 days after anti CD3/anti CD28 stimulation. 1 day after LOS stimulation of the monocytes, cytokine production was measured. At the indicated times, supernatant was harvested and stored at −20° C. until used. IL-1b, IL-6, IL-8, IL-10, IL-12, IL-13, TNFa and IFNg were detected with ELISA kits (PeliKine-compact, CLB, Amsterdam, The Netherlands) according to the protocol. Summarized briefly, mAbs were coated on flat bottom microtitre plates (Nunc, Maxisorb) overnight in 100 μl 0.1 M sodiumbicarbonate at pH 9.6. All incubations were performed in 100 μl at room temperature. Plates were washed 5 times with PBS+0.02% Tween (Mallinckrodt Baker, Deventer, The Netherlands). Samples were incubated together with a biotinylated mAb for 2 hours in High Performance ELISA-buffer (CLB). Plates were washed 5 times with PBS+0.02% Tween and incubated with streptavidin-labeled poly-horseradish peroxidase (CLB) 1:1000 diluted in PBS+2% skimmed milk for 30 minutes. After 5 wash steps the plates were developed with TMB-substrate containing 0.003% H2O2, […] 3,5,3′,5′-tetramethylbenzidine (Merck, Darmstadt, Germany) in 0.11 M sodium acetate, pH 5.5. The reaction was stopped with an equal volume of 2 M H2SO4. The plates were measured in an ELISA-reader at 450 nm, using 540 nm for background measurements. GM-CSF was measured using a protocol similar to that used for the other cytokines. The GM-CSF Abs were a kind gift from Dr. G. Trinchieri (the Wistar Institute, Philadelphia, Pa., USA) In this assay the coating Ab was anti-GM-CSF 9.1 (used at 2 μg/ml), the biotinylated Ab was anti-GM-CSF 16.3 (0.1 μg/ml). rGM-CSF (Sandoz, Basel, Switzerland) and HGF 22.10 (CLB) were used for preparation of a standard curve.
IC50 values (the concentration of the compound needed to inhibit 50% of the maximum response) were determined by using 2-fold titration curves of the compound. The minimum concentration tested was 0.15 μM and the maximum concentration was 40 μM. […] IL-6 in the culture supernatant was determined after 24 h of LOS stimulation of the PBMC by ELISA. GM-CSF in the culture supernatant was determined after 3 days of anti-CD3/anti-CD28 stimulation of the PBMC by ELISA

[2] = Human volunteers given 4-OH-OPB orally before LPS infusion: tolerability; format: in vivo; details: 200 mg orally, 2 hours before LPS 4 ng/kg i.v.
Method: Eight of the volunteers received 4-OH-OPB 200 mg orally as two tablets of 100 mg and eight were given placebo tablets. Placebo tablets were chemically identical with the exception of the presence of 4-OH-OPB. The study drug and placebo were administered 2 hours prior to infusion of […] coli lipopolysaccharide, lot G1, United States Pharmacopeial Convention, Rockville, Md.) was administered as a bolus intravenous injection at a dose of 4 ng/kg body weight. Blood was drawn directly prior to the administration of 4-OH-OPB, directly prior to injection of LPS and 0.5, 1, 1.5, 2, 3, 4, 5, 6, 8, 10 and 23 hours thereafter for plasma levels of 4-OH-OPB and/or metabolites. Blood was collected in heparinized tubes which were centrifuged at 3000 r.p.m. for 10 minutes at 4° C., after which 2 ml plasma was transferred in acid containing tubes. Blood for ex vivo production of cytokines in whole blood and mononuclear cell (MNC) cultures was taken directly prior to the administration of 4-OH-OPB and directly prior to the injection of LPS (t=-2 hrs and t=0 hrs). Heparinized whole blood or MNCs were incubated with medium, LOS or anti-CD3/CD28. […] Concentrations of TNF-α, IL-6, IL-8, IL-10 were determined in EDTA-anticoagulated plasma by Cytometric Bead Array (Human BD Cytometric Bead Array Kit, BD Biosciences Pharmingen, San Jose, Calif.).

[3] = tested on: Th1 and Th2 specific cytokine production; assay: Effect on lymphocyte specific cytokines (Th1 and Th2); format: cell-based, human
Method: as §2
(§4) Cytokine production of T lymphocytes was measured 3 days after anti CD3/anti CD28 stimulation. 1 day after LOS stimulation of the monocytes, cytokine production was measured. At the indicated times, supernatant was harvested and stored at −20° C. until used. IL-1b, IL-6, IL-8, IL-10, IL-12, IL-13, TNFa and IFNg were detected with ELISA kits (PeliKine-compact, CLB, Amsterdam, The Netherlands) according to the protocol. Summarized briefly, mAbs were coated on flat bottom microtitre plates (Nunc, Maxisorb) overnight in 100 μl 0.1 M sodiumbicarbonate at pH 9.6. […] The plates were measured in an ELISA-reader at 450 nm, using 540 nm for background measurements. GM-CSF was measured using a protocol similar to that used for the other cytokines. […]

[4] = tested on: monokine production by monocytes; assay: Effect on other monokines produced by stimulated monocytes; format: cell-based, human
Method: as §2, §4

[5] = tested on: LOS induced IL-6 production; assay: LOS induced IL-6 production by PBMC (ELISA); format: cell-based, human; details: for IC50: 24 h LOS stimulation, mean ± SD of at least 3 donors, 0.15-40 μM tested
Method: as §1, with “(Sigma-Aldrich). All used compounds are endotoxin free.” for “(Sigma-Aldrich).”
as §2, §3
IC50 values (the concentration of the compound needed to inhibit 50% of the maximum response) were determined by using 2-fold titration curves of the compound. The minimum concentration tested was 0.15 μM and the maximum concentration was 40 μM. Results represent the mean ±standard deviation of at least 3 donors. IL-6 in the culture supernatant was determined after 24 h of LOS stimulation of the PBMC by ELISA. GM-CSF in the culture supernatant was determined after 3 days of anti-CD3/anti-CD28 stimulation of the PBMC by ELISA

[6] = Stability of ring-opened product in aqueous solution; format: physicochemical
Text: The product of Example 4 (PHBPQ, N-phenyl-2-hydroxy-2 butyl-1,3-propanal quinoneimine) was examined for stability in aqueous solution, followed by analysis by ^1H NMR spectroscopy.

[7] = LOS induced IL-6 production, PBMC

IC50 ([1]; Homo sapiens, 72 h): 0.8 ± 0.5 µM
IC50 ([5]; Homo sapiens, PBMC): 0.6 ± 0.6 µM
Molecule: CCCCC1(O)C(=O)N(c2ccccc2)N(c2ccc(O)cc2)C1=O (stereo not shown) [4-OH-OPB, 4-Hydroxy-oxyphenbutazone]
concentration inhibiting GM-CSF production (total inhibition) ([1]; three days incubation): 1.25 µM
adverse events attributable to the compound [2]: No adverse events
complaints of epigastric pain [2]: no complaints of epigastric pain
inhibition of cytokine production induced by other stimuli ([3]; PMA/ionomycin, PMA/anti-CD28 or anti-CD2/anti-CD28 antibodies): inhibited at similar concentration
effect on production of lymphocyte specific cytokines (Th1 and Th2) ([3]; anti-CD3/anti-CD28 stimulation): identical to the inhibition found for GM-CSF
inhibition of LOS-induced monokines compared with IL-6 ([4]; LOS-induced, monocytes): inhibited identically
inhibition of SAC induced monokine production ([4]; SAC (heat killed staphylococcus aureus cells) stimulus): also inhibited
cytokine inhibitory activity (IL-6 and GM-CSF production by PBMC in vitro) ([5]; IL-6 and GM-CSF production by PBMC in vitro): best inhibitor
factor by which the IL-6 inhibiting concentration is lower than that for GM-CSF [5, 7]: 2

IC50 [1]: 30 ± 10 µM
IC50 ([5]; PBMC): 13 ± 4 µM
Molecule: O=C1N(c2ccccc2)N(c2ccc(O)cc2)C(=O)C1(O)CCS(=O)(=O)c1ccccc1 (stereo not shown) [4-OH-OPS, 4-ethylsuphonphenyl-4-hydroxy-1-phenyl-2-hydroxyphenyl-3,5-pyrazoladinedione]
concentration inhibiting GM-CSF production (total inhibition) ([1]; three days incubation): around 40 μM
concentration needed to inhibit IL-6 production compared to 4-OH-OPB [5, 7]: higher concentration

IC50 ([1]; Homo sapiens, 72 h): 25 ± 7 µM
IC50 ([5]; Homo sapiens, PBMC): 13 ± 12 µM
Molecule: CCCCC1C(=O)N(c2ccccc2)N(c2ccc(O)cc2)C1=O (stereo not shown) [OPB, oxyphenbutazone]
concentration inhibiting GM-CSF production (total inhibition) ([1]; three days incubation): around 40 μM
concentration needed to inhibit IL-6 production compared to 4-OH-OPB [5, 7]: higher concentration

Further lines, the molecule ahead of its results:

Molecule: CCCCC1C(=O)N(c2ccccc2)N(c2ccccc2)C1=O [PB, phenbutazone]
IC50 ([1]; Homo sapiens, 72 h): 30 ± 10 µM
shape of dose-response curve for GM-CSF inhibition ([1]; three days incubation, up to 40 μM): shallow dose-response curve
IC50 ([5]; Homo sapiens, PBMC): > 40 µM

Molecule: N-phenyl-2-hydroxy-2-butyl-1,3-propanal quinoneimine [PHBPQ]
re-conversion into 4-OH-OPB when the solution was acidified ([6]; acidified solution): not re-converted into 4-OH—OPB
half-life ([6]; aqueous solution, pH 7.4): 2 to 2.5 h
stability compared with 4-OH-OPB ([6]; pH 7.4): more stable
